ChEMBL document CHEMBL4834406, “Isolation, Structure Elucidation, Semi-Synthesis, and Structural Modification of C19-Diterpenoid Alkaloids from Aconitum apetalum and Their Neuroprotective Activities” (J Nat Prod, 2021)
Activity calls are given as the source filed them. The rule behind the calls is not given here.

Experiments:
SH-SY5Y [1] = test: Cytotoxicity against H2O2 induced human neuroblastoma SH-SY5Y cells assessed as cell viability measured after 5 hrs by MTT assay; type: cell-based
SH-SY5Y [2] = test: Neuroprotective activity against H2O2-induced human SH-SY5Y cell damage assessed as protective rate at 50 uM pretreated for 1 hr followed by H2O2 addition measured after 4 hrs by MTT assay (reference value: 68.2 +/- 1.34%); type: functional; conditions: time 5 hrs
SH-SY5Y [3] = test: Neuroprotective activity against H2O2-induced human SH-SY5Y cell apoptosis assessed as PARP protein expression at 50 uM measured by Western blot analysis relative to control; type: functional, cell-based
SH-SY5Y [4] = test: Neuroprotective activity against H2O2-induced human SH-SY5Y cell death assessed as early apoptotic cells at 50 uM measured by Annexin V/PI double staining base flow cytometry analysis (reference value: 15.23%); type: functional, cell-based
SH-SY5Y [5] = test: Inhibition of ROS production in H2O2-induced human SH-SY5Y cells at 50 uM pretreated for 1 hr followed by H2O2 addition measured after 4 hrs by DCFH-DA based flow cytometry; type: functional, cell-based; conditions: time 5.0 hrs
SH-SY5Y [6] = test: Neuroprotective activity against H2O2-induced human SH-SY5Y cell apoptosis assessed as Bax protein expression at 50 uM measured by Western blot analysis relative to control; type: functional, cell-based
SH-SY5Y [7] = test: Neuroprotective activity against H2O2-induced human SH-SY5Y cell death assessed as reversal of apoptosis at 50 uM pretreated for 1 hr followed by H2O2 addition measured after 4 hrs by Hoechst 33258 based fluorescence microscopy; type: functional; conditions: time 5.0 hrs
SH-SY5Y [8] = test: Neuroprotective activity against H2O2-induced human SH-SY5Y cell apoptosis assessed as Bcl-2 protein expression at 50 uM measured by Western blot analysis relative to control; type: functional, cell-based
SH-SY5Y [9] = test: Neuroprotective activity against H2O2-induced human SH-SY5Y cell death assessed as late apoptotic cells at 50 uM measured by Annexin V/PI double staining base flow cytometry analysis (reference value: 7.78%); type: functional, cell-based
SH-SY5Y [10] = test: Neuroprotective activity against H2O2-induced human SH-SY5Y cell apoptosis assessed as caspase 3 protein expression at 50 uM measured by Western blot analysis relative to control; type: functional, cell-based
SH-SY5Y [11] = test: Neuroprotective activity against H2O2-induced human SH-SY5Y cell death assessed as necrotic cells at 50 uM measured by Annexin V/PI double staining base flow cytometry analysis (reference value: 0.32%); type: functional, cell-based
SH-SY5Y [12] = test: Neuroprotective activity against H2O2-induced human SH-SY5Y cell death assessed as viable cells at 50 uM measured by Annexin V/PI double staining base flow cytometry analysis (reference value: 76.67%); type: functional; conditions: read-out: Activity

| SMILES | Activity (SH-SY5Y [1]) | Activity (SH-SY5Y [2]) | also measured |
| --- | --- | --- | --- |
| CCN1C[C@]2(COC(=O)c3ccccc3NC(=O)c3ccccc3NC(C)=O)CC[C@H](OC)C34C1C(C[C@@H]32)[C@@]1(O)C[C@H](OC)C2C[C@@H]4[C@@H]1[C@H]2OC(=O)c1ccccc1NC(=O)c1ccccc1NC(C)=O | Non-Toxic | 19.9% | – |
| CCO[C@]12C[C@H](OC)C3C[C@H]([C@@H]1[C@H]3O)C13C4C2C[C@@H]1[C@@](COC(=O)c1ccccc1NC(=O)c1ccccc1NC(=O)C(C)(C)O)(CC[C@@H]3OC)CN4CC | Non-Toxic | 58.6% | – |
| CCN1C[C@]2(COC(=O)c3ccccc3NC(=O)c3ccccc3NC(=O)C(C)Cl)CC[C@H](OC)C34C1C(C[C@@H]32)[C@@]1(O)C[C@H](OC)C2C[C@@H]4[C@@H]1[C@H]2O (stereo partly specified) | Non-Toxic | 2.2% | – |
| CCN1C[C@]2(COC(=O)c3ccccc3NC(=O)c3ccccc3NC(=O)C(C)(C)O)CC[C@H](OC)C34C1C(C[C@@H]32)[C@@]1(O)C[C@H](OC)C2C[C@@H]4[C@@H]1[C@H]2O | Non-Toxic | 77.4% | Activity (SH-SY5Y [3]): Active; Activity (SH-SY5Y [4]): Active; inhibition (SH-SY5Y [5]): Active; Activity (SH-SY5Y [6]): Active; Activity (SH-SY5Y [7]): Active; Activity (SH-SY5Y [8]): Active; Activity (SH-SY5Y [9]): Active; Activity (SH-SY5Y [10]): Active; Activity (SH-SY5Y [11]): Active; viability at 50 µM (SH-SY5Y [12]): 89.2% |
| CCCC(=O)Nc1ccccc1C(=O)Nc1ccccc1C(=O)OC[C@@]12CC[C@H](OC)C34C(C(C[C@@H]31)[C@@]1(O)C[C@H](OC)C3C[C@@H]4[C@@H]1[C@H]3OC(=O)c1ccccc1NC(=O)c1ccccc1NC(=O)CCC)N(CC)C2 | Non-Toxic | 21.3% | – |
| CCCCC(=O)Nc1ccccc1C(=O)Nc1ccccc1C(=O)OC[C@@]12CC[C@H](OC)C34C(C(C[C@@H]31)[C@@]1(O)C[C@H](OC)C3C[C@@H]4[C@@H]1[C@H]3OC(=O)c1ccccc1NC(=O)c1ccccc1NC(=O)CCCC)N(CC)C2 | Non-Toxic | 33% | – |
| CCN1C[C@]2(COC(=O)c3ccccc3NC(=O)c3ccccc3NC(=O)C(Cl)(Cl)Cl)CC[C@H](OC)C34C1C(C[C@@H]32)[C@@]1(O)C[C@H](OC)C2C[C@@H]4[C@@H]1[C@H]2O | Non-Toxic | 14.5% | – |
| CCN1C[C@]2(COC(=O)c3ccccc3NC(=O)c3ccccc3NC(=O)C(C)(C)O)CC[C@H](OC)C34C1C(C[C@@H]32)[C@@]1(O)C[C@H](OC)C2C[C@@H]4[C@@H]1[C@H]2OC(=O)c1ccccc1NC(=O)c1ccccc1NC(=O)C(C)(C)O | Non-Toxic | 12.4% | – |
| CCCCC(=O)Nc1ccccc1C(=O)Nc1ccccc1C(=O)OC[C@@]12CC[C@H](OC)C34C(C(C[C@@H]31)[C@@]1(O)C[C@H](OC)C3C[C@@H]4[C@@H]1[C@H]3O)N(CC)C2 | Non-Toxic | 11.7% | – |
| CCCCCC(=O)Nc1ccccc1C(=O)Nc1ccccc1C(=O)OC[C@@]12CC[C@H](OC)C34C(C(C[C@@H]31)[C@@]1(O)C[C@H](OC)C3C[C@@H]4[C@@H]1[C@H]3O)N(CC)C2 | Non-Toxic | 22.5% | – |
| CCN1C[C@]2(COC(=O)c3ccccc3NC(=O)c3ccccc3NC(=O)C(C)(O)CC)CC[C@H](OC)C34C1C(C[C@@H]32)[C@@]1(O)C[C@H](OC)C2C[C@@H]4[C@@H]1[C@H]2OC(C)=O (stereo partly specified) | Non-Toxic | 62.1% | – |
| CCCCC(CC)C(=O)Nc1ccccc1C(=O)Nc1ccccc1C(=O)OC[C@@]12CC[C@H](OC)C34C(C(C[C@@H]31)[C@@]1(O)C[C@H](OC)C3C[C@@H]4[C@@H]1[C@H]3O)N(CC)C2 (stereo partly specified) | Non-Toxic | 6.5% | – |
| CCN1C[C@]2(COC(=O)c3ccccc3NC(=O)c3ccccc3NC(=O)C(C)C)CC[C@H](OC)C34C1C(C[C@@H]32)[C@@]1(O)C[C@H](OC)C2C[C@@H]4[C@@H]1[C@H]2OC(=O)c1ccccc1NC(=O)c1ccccc1NC(=O)C(C)C | Non-Toxic | 5.5% | – |
| CCN1C[C@]2(COC(=O)c3ccccc3NC(=O)c3ccccc3NC(=O)C(C)(C)O)CC[C@H](OC)C34C1C(C[C@@H]32)[C@@]1(O)C[C@H](OC)C2C[C@@H]4[C@@H]1[C@H]2OC(C)=O | Non-Toxic | 48.6% | – |
| CCN1C[C@]2(COC(=O)c3ccccc3NC(=O)c3ccccc3NC(=O)C(C)(C)O)CC[C@H](OC)C34C1C(C[C@@H]32)[C@@]1(OC(C)=O)C[C@H](OC)C2C[C@@H]4[C@@H]1[C@H]2OC(C)=O | Non-Toxic | 54.2% | – |
| CCN1C[C@]2(COC(=O)c3ccccc3NC(=O)c3ccccc3NC(=O)c3ccccc3)CC[C@H](OC)C34C1C(C[C@@H]32)[C@@]1(O)C[C@H](OC)C2C[C@@H]4[C@@H]1[C@H]2OC(=O)c1ccccc1NC(=O)c1ccccc1NC(=O)c1ccccc1 | Non-Toxic | 10.8% | – |
| CCN1C[C@]2(COC(=O)c3ccccc3NC(=O)c3ccccc3NC(=O)CC(C)C)CC[C@H](OC)C34C1C(C[C@@H]32)[C@@]1(O)C[C@H](OC)C2C[C@@H]4[C@@H]1[C@H]2OC(=O)c1ccccc1NC(=O)c1ccccc1NC(=O)CC(C)C | Non-Toxic | 13% | – |
| CCN1C[C@]2(COC(=O)c3ccccc3NC(=O)c3ccccc3NC(=O)CCCCl)CC[C@H](OC)C34C1C(C[C@@H]32)[C@@]1(O)C[C@H](OC)C2C[C@@H]4[C@@H]1[C@H]2O | Non-Toxic | 15.6% | – |
